In patent publication US11166940B2, “Treatment of cardiac disorders by blocking SK4 potassium channel” (Ramot at Tel-Aviv University Ltd., priority 2016, dated 2021):
Where “and” joins values, the source holds several entries; their conditions need not be identical. Identical values can stand only once.

Key:
WT mice = assay: In vivo telemetric ECG recording in WT (normal) mice; parameters: species or system mouse; conditions: 20 mg/kg IP
Excerpt: (§1) Telemetric ambulatory long-term ECG recordings, analogous to Holter monitoring in humans, were obtained with implantable transmitters. […] An implantable 3.5 grams wireless radiofrequency transmitter (DSI MM USA, device weight 3.8 grams) was aseptically inserted into a subcutaneous tissue pocket in the back as described in Katz, G., et al. Heart Rhythm 7, 1676-1682 (2010) and Kurtzwald-Josefson, E., et al. Heart Rhythm 11, 1471-1479 (2014)]. Animals were allowed to recover after surgery for at least 24 hours before any experiments. Baseline electrocardiograms (ECG) were obtained 15 minutes after IP injection of the appropriate vehicle (peanut oil or peanut oil supplemented with ethanol 1%). […] Telemetered ECG tracings were obtained in conscious mice at rest for one minute and during peak exercise (i.e. the first minute of recovery). In the treadmill exercise, mice were forced to exercise on a rodent treadmill; gradually increasing the speed up to a maximum of 15 m/minute. Ventricular tachycardia (VT) was defined as four or more consecutive ventricular beats. If this phenotype was consecutively observed for more than 15 seconds, it was defined as “sustained” ventricular tachycardia (SVT). Shorter VTs were characterized as “non-sustained” (NSVT). All other ventricular arrhythmias, such as premature beats, ventricular bigeminy, couplets and triplets were all defined as ventricular premature contractions (VPCs).
(§2) For this, a heart telemetry device was implanted in norma mice for continuous ECG recording at rest and during treadmill exercise. For each session, continuous ECG recording was performed with the same animals receiving first intraperitoneal (IP) injection of vehicle (peanut oil) and then 20 mg/kg clotrimazole.
as §2, with “A” for “For this, a”, “WT, CASQ2-D307H KI and CASQ2 KO” for “norma”, “the SK4 channel blocker.” for “20 mg/kg clotrimazole.”

CASQ2 KO mice = assay: In vivo telemetric ECG recording in CASQ2 KO mice; parameters: species or system mouse; conditions: 20 mg/kg IP; for number of mice, most severe ECG form: NSVT / number of mice, most severe ECG form: Normal (sinusal rhythm) / number of mice, most severe ECG form: SVT / number of mice, most severe ECG form: VPC: n=6
Excerpt: as §1
as §2, with “A” for “For this, a”, “WT, CASQ2-D307H KI and CASQ2 KO” for “norma”, “the SK4 channel blocker.” for “20 mg/kg clotrimazole.”
(§3) The types of arrhythmic features were classified following their seriousness: sinusal rhythm (normal), ventricular premature contractions (VPC), non-sustained ventricular tachycardia (NSVT) and sustained ventricular tachycardia (SVT). For each mouse was considered the most severe form of arrhythmia recorded under ECG.

SK4 current = target: T1, SK4 current (Homo sapiens, UniProt O15554); conditions: 2 μM clotrimazole added to solution 1; voltage ramp −90 to +40 mV; cited from earlier work
T1 construct: electrophysiological characterization of the SK4 current in a single cardiac hESC-CM; endogenous in cells; host or cells: hESC-CMs (human embryonic stem cell-derived cardiomyocytes)
T1 sequence (O15554 whole entry): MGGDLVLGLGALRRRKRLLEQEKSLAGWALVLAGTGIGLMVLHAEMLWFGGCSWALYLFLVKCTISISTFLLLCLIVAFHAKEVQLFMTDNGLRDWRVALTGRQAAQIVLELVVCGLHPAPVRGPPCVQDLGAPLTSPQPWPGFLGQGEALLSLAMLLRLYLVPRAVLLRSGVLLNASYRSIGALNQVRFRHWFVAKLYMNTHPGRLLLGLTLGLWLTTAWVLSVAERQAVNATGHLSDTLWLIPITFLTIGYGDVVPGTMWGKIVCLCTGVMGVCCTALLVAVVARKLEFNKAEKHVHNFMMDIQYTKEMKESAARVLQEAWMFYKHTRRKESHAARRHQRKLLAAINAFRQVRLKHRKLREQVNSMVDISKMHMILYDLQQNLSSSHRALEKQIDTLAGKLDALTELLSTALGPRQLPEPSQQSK

CASQ2-D307H KI mice = assay: In vivo telemetric ECG recording in CASQ2-D307H KI mice; parameters: species or system mouse; conditions: 20 mg/kg IP; for number of mice, most severe ECG form: NSVT / number of mice, most severe ECG form: Normal (sinusal rhythm) / number of mice, most severe ECG form: SVT / number of mice, most severe ECG form: VPC: n=5 Clotrimazole, n=12 TRAM-34
Excerpt: as §1
as §2, with “A” for “For this, a”, “WT, CASQ2-D307H KI and CASQ2 KO” for “norma”, “the SK4 channel blocker.” for “20 mg/kg clotrimazole.”
as §3

hESC-CMs = conditions: 2 μM clotrimazole, current clamp; cited from earlier work
SAN cells = assay: Spontaneous APs / pacing rate of isolated SAN cells from WT mice (patch clamp); format: cell-based, mouse; conditions: 2 μM clotrimazole, current clamp; reversible during washout
Experimental: WT and CASQ2 D307H KI mice were anesthetized with isofluorane and sacrificed by cervical dislocation. The heart was rapidly removed and transferred into Tyrode solution containing heparin. […] The area was cleaned, cut into small strips and washed into a Low Calcium Solution, containing (in mM): 140 NaCl, 5.4 KCl, 0.5 MgCl2, 1.2 KH2PO4, 5 HEPES-NaOH, 50 taurine, 5.5 glucose (pH 6.9). The osmolarity was adjusted if needed to 315 mOsm.
The same solution, supplemented with 1 mg/ml albumin, 200 μM CaCl2, collagenase Type I (Worthington) or liberase TH (Roche), protease (Sigma) and elastase (Sigma) was used for enzymatic digestion as previously described [See, Mesirca, P., et al. Nat Commun 5, 4664 (2014)]. In this step, the tissue was gently resuspended with a polished Pasteur pipette in this solution for 9-13 minutes at 37° C. SAN samples were then washed three times in a modified “Kraftbrühe” solution, containing (in mM): 70 glutamic acid, 80 KOH, 20 KCl, 10 γ-Hydroxybutyric acid sodium salt, 10 KH2PO4, 10 HEPES-KOH, 10 taurine, 1 mg/ml albumin, 0.1 EGTA-KOH (pH 7.2). The same solution was used to re-suspend the single cells with a pipet by vigorous up and down, between 3 to 5 minutes at 37° C. Cells were then gradually exposed to increasing concentrations of calcium, following a “Ca^2+ readaptation” protocol [Mesirca et al., 2014, supra]. Experiments were performed the same day at 33° C.
In all experiments, the coverslips were perfused at 33° C. with an external solution containing (in mM): 140 NaCl, 4 KCl, 11 Glucose, 1.2 MgCl2, 1.8 CaCl2, 5.5 HEPES titrated to pH 7.4 with NaOH and adjusted at 320 mOsm with sucrose.
The spontaneous automaticity of isolated SAN cells was recorded under perforated-patch conditions by adding 30 μM β-escin49 to the intracellular solution containing (in mM): 130 KCl, 10 NaCl, 10 HEPES, 0.2 EGTA-KOH, 2 MgATP, 6.6 Phosphocreatine, 0.05 cAMP and 1 μM free Ca^2+ (pH 7.2). To record SK4 K+ current, a voltage ramp protocol was applied. SAN and hiPS-CMs were held at −40 mV and −20 mV, respectively to substantially inactivate voltage-gated Na^+ and Ca^2+ currents. Cells were stepped from −90 mV to +60 mV for 150 ms. Then, a cocktail (solution 1) containing (in mM) 0.3 cadmium, 0.025 ZD-7288 and 0.01 E-4031 was applied extracellularly to inhibit residual L-type and T-type voltage-gated Ca2+ currents, If and the IKr currents, respectively. […] For voltage-clamp recording of SAN cells, the intracellular solution was the same to that described above for recording spontaneous automaticity.
The spontaneous electric activity of the cell was recorded in the current clamp configuration of the patch clamp technique before (black trace) and during (violet trace) exposure to 2 μM clotrimazole.
FIG. 5E (Left) presents representative traces of spontaneous APs recorded in single SAN cell from WT mice.

In the case of `Clc1ccccc1C(c1ccccc1)(c1ccccc1)n1ccnc1` [Clotrimazole], the “prolongation of the PR interval” value (WT mice; WT mice at rest) is reported as 27%, the “reduction of resting heart rate” value (WT mice; WT mice at rest, vs vehicle in same animal) is reported as 16.1±6.1% and 16±6% and the PR interval (WT mice; normal mice at rest, n=10 (vehicle 29.4±0.9)) is reported as 37.0 ± 3.5 ms. The resting heart rate (WT mice; normal mice at rest, n=10 (vehicle 718±16)) was 604±43 bpm, the “sinus rate (heart rate)” value (WT mice; normal mice during treadmill exercise, n=10 (vehicle 724±18)) was 605±42 bpm and the PR interval (WT mice; normal mice following treadmill exercise, n=10 (vehicle 29.27±0.94), not significant) was 37.44 ± 4.03 ms. For the same compound, the “heart rate and PR interval” value (CASQ2 KO mice; KO mice, basal conditions and during treadmill exercise) was “bradycardia and PR prolongation were noticed”, the “number of mice, most severe ECG form: NSVT” value (shortened to “number of mice … NSVT”) (CASQ2 KO mice; KO at rest) was 0 and the “number of mice, most severe ECG form: Normal (sinusal rhythm)” value (shortened to “number of mice … (sinusal rhythm)”) (CASQ2 KO mice; KO at rest) was 4. For the same compound, the “number of mice, most severe ECG form: SVT” value (CASQ2 KO mice; KO at rest) was 0, the “number of mice, most severe ECG form: VPC” value (from here on “number of mice … VPC”) (CASQ2 KO mice; KO at rest) was 2 and the “number of mice … NSVT” value (CASQ2 KO mice; KO during exercise) was 3. The “number of mice … (sinusal rhythm)” value (CASQ2 KO mice; KO during exercise) was 0, the “number of mice, most severe ECG form: SVT” value (CASQ2 KO mice; KO during exercise) was 1 and the “number of mice … VPC” value (CASQ2 KO mice; KO during exercise) was 2. The “clotrimazole-sensitive/SK4 current (linear voltage trace)” value (SK4 current) was “decreased the linear voltage trace in both sides”, the “mice converted to normal sinus rhythm” value (CASQ2-D307H KI mice; KI mice at rest) was 3 out of 5 and the “heart rate and PR interval” value (CASQ2-D307H KI mice; KI mice, basal conditions and during treadmill exercise) was “bradycardia and PR prolongation were noticed”. The “number of mice … NSVT” value (CASQ2-D307H KI mice; KI at rest) was 0, the “number of mice … (sinusal rhythm)” value (CASQ2-D307H KI mice; KI at rest) was 3 and the “number of mice, most severe ECG form: SVT” value (CASQ2-D307H KI mice; KI at rest) was 0. The “number of mice … VPC” value (CASQ2-D307H KI mice; KI at rest) was 2, the “number of mice … NSVT” value (CASQ2-D307H KI mice; KI during Exercise) was 2 and the “number of mice … (sinusal rhythm)” value (CASQ2-D307H KI mice; KI during Exercise) was 0. For the same compound, the “number of mice, most severe ECG form: SVT” value (CASQ2-D307H KI mice; KI during Exercise) was 1, the “number of mice … VPC” value (CASQ2-D307H KI mice; KI during Exercise) was 2 and the “duration of the action potentials (APD50)” value (hESC-CMs) was “did not significantly affect”. The firing rate (hESC-CMs) was “decreased the firing rate of the cells”, the “membrane potential (MDP) / pacing” value (hESC-CMs) was “depolarized the membrane of the cell (MDP) until a pacing arrest” and the firing rate (SAN cells) was “strongly decreases the firing rate of the cells”.
